This is an account of results in ChEMBL document CHEMBL2069185, “Eunicidiol, an anti-inflammatory dilophol diterpene from Eunicea fusca” (J Nat Prod, 2012).

Data set [1] relates to Mus musculus. The experiment in a line: Antiinflammatory activity in CD1 mouse ear edema model assessed as reduction in phorbol myristate acetate-induced edema administered topically at right ear 1 hr before phorbol myristate acetate challenge and measured 6 to 24 hrs post dose. Type of data set: functional.
Data set [2] concerns Mus musculus. Put plainly: Toxicity in CD1 mouse model phorbol myristate acetate-induced ear edema model at 0.1 mg/ear administered topically at right ear 1 hr before phorbol myristate acetate challenge and measured 24 hrs post dose. Format: organism-based. Conditions: in vivo, topical_or_ocular.
Data set [3] relates to Mus musculus. The experiment in a line: Antiinflammatory activity in CD1 mouse ear edema model assessed as reduction in phorbol myristate acetate-induced edema at 0.1 mg/ear administered topically at right ear 1 hr before phorbol myristate acetate challenge and measured 24 hrs post dose. Type of data set: functional.

Consider `C=C[C@@]1(C)CC[C@H](/C(C)=C/C=C/C(C)(C)O[C@@H]2OC[C@@H](O)[C@@H](O)[C@@H]2O)C[C@@H]1C(=C)C` [FUSCOSIDE B], for which, in data set [1], the “inhibition (INH)” value stood at 52%.
As for `C=C1CC/C=C(\C)CC[C@H](/C(C)=C/C=C/C(C)(C)O)C[C@H]1O` (relative stereo), the Activity entry in data set [2] was “Non-toxic”.
For `C/C1=C\C[C@@H](/C(C)=C/C=C/C(C)(C)O)CC/C(C)=C/CC1` [EUNICOL], the “inhibition (INH)” value in data set [3] turned out to be 0.1%. Moreover, the Activity entry in data set [2] is “Non-toxic”.
For `C=C[C@@]1(C)CC[C@H](/C(C)=C/C=C/C(C)(C)O)C[C@@H]1C(=C)C` [FUSCOL], the Activity result in data set [2] was “Non-toxic”.
Take `CC(=O)O[C@@H]1[C@@H](O[C@H]2CC[C@H](C)[C@@]3(C)C[C@@H](/C(C)=C/C=C/C(C)(C)O)CC[C@H]23)OC[C@@H](O)[C@H]1O`: the “inhibition (INH)” value in data set [1] worked out at 85%.
